≈ marks a conversion by molar mass, not a printed value.
Experiments:
[1] = system: Mycobacterium tuberculosis variant bovis; assay: Antimycobacterial activity against Mycobacterium bovis BCG ATCC 35734 assessed as ATP leakage by measuring extracellular ATP at 4 times MIC measured at 24 hrs post dose by luciferase reporter gene assay; assay type: functional, Mycobacterium tuberculosis variant bovis BCG
[2] = system: Mycobacterium tuberculosis variant bovis; assay: Antimycobacterial activity against Mycobacterium bovis BCG ATCC 35734 assessed as ATP leakage by measuring extracellular ATP at 2 times MIC measured at 24 hrs post dose by luciferase reporter gene assay; assay type: functional, Mycobacterium tuberculosis variant bovis BCG
[3] = system: Mycobacterium tuberculosis variant bovis; assay: Antimycobacterial activity against Mycobacterium bovis BCG ATCC 35734 assessed as ATP leakage by measuring extracellular ATP at 0.5 times MIC measured at 24 hrs post dose by luciferase reporter gene assay; assay type: functional, Mycobacterium tuberculosis variant bovis BCG
[4] = system: Mycobacterium tuberculosis variant bovis; assay: Antimycobacterial activity against Mycobacterium bovis BCG ATCC 35734 assessed as ATP leakage by measuring intracellular ATP at 4 times MIC measured at 9 hrs post dose by luciferase reporter gene assay; assay type: functional, Mycobacterium tuberculosis variant bovis BCG
[5] = system: Mycobacterium tuberculosis variant bovis; assay: Antimycobacterial activity against Mycobacterium bovis BCG ATCC 35734 assessed as ATP leakage by measuring intracellular ATP at 2 times MIC measured at 9 hrs post dose by luciferase reporter gene assay; assay type: functional, Mycobacterium tuberculosis variant bovis BCG
[6] = system: Mycobacterium tuberculosis variant bovis; assay: Antimycobacterial activity against Mycobacterium bovis BCG ATCC 35734 assessed as ATP leakage by measuring intracellular ATP at 0.5 times MIC measured at 9 hrs post dose by luciferase reporter gene assay; assay type: functional, Mycobacterium tuberculosis variant bovis BCG
[7] = system: Mycobacterium tuberculosis variant bovis; assay: Antimycobacterial activity against Mycobacterium bovis BCG ATCC 35734 assessed as ATP leakage by measuring extracellular ATP at 2 times MIC measured at 9 hrs post dose by luciferase reporter gene assay; assay type: functional, Mycobacterium tuberculosis variant bovis BCG
[8] = system: Mycobacterium tuberculosis variant bovis; assay: Antimycobacterial activity against Mycobacterium bovis BCG ATCC 35734 assessed as ATP leakage by measuring extracellular ATP at 0.5 times MIC measured immediatey after addition of compounds by luciferase reporter gene assay; assay type: functional, Mycobacterium tuberculosis variant bovis BCG
[9] = system: Mycobacterium tuberculosis variant bovis; assay: Antimycobacterial activity against Mycobacterium bovis BCG ATCC 35734 assessed as ATP leakage by measuring intracellular ATP at 1 MIC measured immediatey after addition of compounds by luciferase reporter gene assay; assay type: functional, Mycobacterium tuberculosis variant bovis BCG
[10] = system: Mycobacterium tuberculosis variant bovis; assay: Antimycobacterial activity against Mycobacterium bovis BCG ATCC 35734 assessed as ATP leakage by measuring extracellular ATP at 4 times MIC measured immediatey after addition of compounds by luciferase reporter gene assay; assay type: functional, Mycobacterium tuberculosis variant bovis BCG
[11] = system: Mycobacterium tuberculosis variant bovis; assay: Antimycobacterial activity against Mycobacterium bovis BCG ATCC 35734 assessed as ATP leakage by measuring extracellular ATP at 2 times MIC measured immediatey after addition of compounds by luciferase reporter gene assay; assay type: functional, Mycobacterium tuberculosis variant bovis BCG
[12] = system: Mycobacterium tuberculosis variant bovis; assay: Antimycobacterial activity against Mycobacterium bovis BCG ATCC 35734 assessed as ATP leakage by measuring extracellular ATP at 1 MIC measured immediatey after addition of compounds by luciferase reporter gene assay; assay type: functional, Mycobacterium tuberculosis variant bovis BCG
[13] = system: Mycobacterium tuberculosis variant bovis; assay: Antimycobacterial activity against Mycobacterium bovis BCG ATCC 35734 after 5 days by broth dilution assay; assay type: functional; conditions: ATCC 35734, 120 h
[14] = system: Mycobacterium tuberculosis variant bovis; assay: Antimycobacterial activity against Mycobacterium bovis BCG ATCC 35734 assessed as ATP leakage by measuring extracellular ATP at 0.5 times MIC measured at 9 hrs post dose by luciferase reporter gene assay; assay type: functional, Mycobacterium tuberculosis variant bovis BCG
[15] = system: Mycobacterium tuberculosis variant bovis; assay: Antimycobacterial activity against Mycobacterium bovis BCG ATCC 35734 assessed as ATP leakage by measuring intracellular ATP at 4 times MIC measured at 6 hrs post dose by luciferase reporter gene assay; assay type: functional, Mycobacterium tuberculosis variant bovis BCG
[16] = system: Mycobacterium tuberculosis variant bovis; assay: Antimycobacterial activity against Mycobacterium bovis BCG ATCC 35734 assessed as ATP leakage by measuring intracellular ATP at 1 MIC measured at 6 hrs post dose by luciferase reporter gene assay; assay type: functional, Mycobacterium tuberculosis variant bovis BCG
[17] = system: Mycobacterium tuberculosis variant bovis; assay: Antimycobacterial activity against Mycobacterium bovis BCG ATCC 35734 assessed as ATP leakage by measuring intracellular ATP at 0.5 times MIC measured at 6 hrs post dose by luciferase reporter gene assay; assay type: functional, Mycobacterium tuberculosis variant bovis BCG
[18] = system: Mycobacterium tuberculosis variant bovis; assay: Antimycobacterial activity against Mycobacterium bovis BCG ATCC 35734 assessed as ATP leakage by measuring extracellular ATP at 4 times MIC measured at 6 hrs post dose by luciferase reporter gene assay; assay type: functional, Mycobacterium tuberculosis variant bovis BCG
[19] = system: Mycobacterium tuberculosis variant bovis; assay: Antimycobacterial activity against Mycobacterium bovis BCG ATCC 35734 assessed as ATP leakage by measuring extracellular ATP at 2 times MIC measured at 6 hrs post dose by luciferase reporter gene assay; assay type: functional, Mycobacterium tuberculosis variant bovis BCG
[20] = system: Mycobacterium tuberculosis variant bovis; assay: Antimycobacterial activity against Mycobacterium bovis BCG ATCC 35734 assessed as ATP leakage by measuring intracellular ATP at 4 times MIC measured at 3 hrs post dose by luciferase reporter gene assay; assay type: functional, Mycobacterium tuberculosis variant bovis BCG
[21] = system: Mycobacterium tuberculosis variant bovis; assay: Antimycobacterial activity against Mycobacterium bovis BCG ATCC 35734 assessed as ATP leakage by measuring intracellular ATP at 2 times MIC measured at 3 hrs post dose by luciferase reporter gene assay; assay type: functional, Mycobacterium tuberculosis variant bovis BCG
[22] = system: Mycobacterium tuberculosis variant bovis; assay: Antimycobacterial activity against Mycobacterium bovis BCG ATCC 35734 assessed as ATP leakage by measuring intracellular ATP at 1 MIC measured at 3 hrs post dose by luciferase reporter gene assay; assay type: functional, Mycobacterium tuberculosis variant bovis BCG
[23] = system: Mycobacterium tuberculosis variant bovis; assay: Antimycobacterial activity against Mycobacterium bovis BCG ATCC 35734 assessed as ATP leakage by measuring extracellular ATP at 4 times MIC measured at 3 hrs post dose by luciferase reporter gene assay; assay type: functional, Mycobacterium tuberculosis variant bovis BCG
[24] = system: Mycobacterium tuberculosis variant bovis; assay: Antimycobacterial activity against Mycobacterium bovis BCG ATCC 35734 assessed as ATP leakage by measuring extracellular ATP at 0.5 times MIC measured at 3 hrs post dose by luciferase reporter gene assay; assay type: functional, Mycobacterium tuberculosis variant bovis BCG
[25] = system: Mycobacterium tuberculosis variant bovis; assay: Antimycobacterial activity against Mycobacterium bovis BCG ATCC 35734 assessed as ATP leakage by measuring intracellular ATP at 2 times MIC measured at 1 hr post dose by luciferase reporter gene assay; assay type: functional, Mycobacterium tuberculosis variant bovis BCG
[26] = system: Mycobacterium tuberculosis variant bovis; assay: Antimycobacterial activity against Mycobacterium bovis BCG ATCC 35734 assessed as ATP leakage by measuring intracellular ATP at 1 MIC measured at 1 hr post dose by luciferase reporter gene assay; assay type: functional, Mycobacterium tuberculosis variant bovis BCG
[27] = system: Mycobacterium tuberculosis variant bovis; assay: Antimycobacterial activity against Mycobacterium bovis BCG ATCC 35734 assessed as ATP leakage by measuring extracellular ATP at 4 times MIC measured at 1 hr post dose by luciferase reporter gene assay; assay type: functional, Mycobacterium tuberculosis variant bovis BCG
[28] = system: Mycobacterium tuberculosis variant bovis; assay: Antimycobacterial activity against Mycobacterium bovis BCG ATCC 35734 assessed as ATP leakage by measuring extracellular ATP at 1 MIC measured at 1 hr post dose by luciferase reporter gene assay; assay type: functional, Mycobacterium tuberculosis variant bovis BCG
[29] = system: Mycobacterium tuberculosis variant bovis; assay: Antimycobacterial activity against Mycobacterium bovis BCG ATCC 35734 assessed as ATP leakage by measuring extracellular ATP at 0.5 times MIC measured at 1 hr post dose by luciferase reporter gene assay; assay type: functional, Mycobacterium tuberculosis variant bovis BCG
[30] = system: Mycobacterium tuberculosis variant bovis; assay: Induction of membrane integrity impairment in Mycobacterium bovis BCG ATCC 35734 assessed as pH shift at 60 uM measured after 3 hrs by CMFDA dye based fluorescence spectroscopic method relative to control; assay type: functional, Mycobacterium tuberculosis variant bovis BCG
[31] = system: Mycobacterium tuberculosis variant bovis; assay: Antimycobacterial activity against Mycobacterium bovis BCG ATCC 35734 assessed as ATP leakage by measuring intracellular ATP at 2 times MIC measured at 24 hrs post dose by luciferase reporter gene assay; assay type: functional, Mycobacterium tuberculosis variant bovis BCG
[32] = system: Mycobacterium tuberculosis variant bovis; assay: Antimycobacterial activity against Mycobacterium bovis BCG ATCC 35734 assessed as ATP leakage by measuring intracellular ATP at 4 times MIC measured at 24 hrs post dose by luciferase reporter gene assay; assay type: functional, Mycobacterium tuberculosis variant bovis BCG

Row | Structure (SMILES) | Activity [1] [%] | Activity [2] [%] | Activity [3] [%] | Activity [4] [%] | Activity [5] [%] | Activity [6] [%] | Activity [7] [%] | Activity [8] [%] | Activity [9] [%] | Activity [10] [%] | Activity [11] [%] | Activity [12] [%] | MIC90 [13] [µM] | Activity [14] [%] | Activity [15] [%] | Activity [16] [%] | Activity [17] [%] | Activity [18] [%] | Activity [19] [%] | Activity [20] [%] | also measured
1 | CCCN(CCC)CCCCOc1cc2oc3cc(OCCCCN(CCC)CCC)c(OC)c(CC=C(C)C)c3c(=O)c2c(O)c1CC=C(C)C | 85.2 | 70.5 | 15.6 | 16 | 24.7 | 74.6 | 75.3 | 0 | 97.5 | 9.4 | 2.2 | 2.5 | 3.2 (≈ 2.31 µg/mL) | 25.4 | 30.3 | 69.6 | 72 | 69.7 | 63.2 | 57.9 | Activity [21]: 55.8%; Activity [22]: 75.8%; Activity [23]: 42.1%; Activity [24]: 20.1%; Activity [25]: 89.9%; Activity [26]: 86.8%; Activity [27]: 16.8%; Activity [28]: 13.2%; Activity [29]: 25.1%; Activity [30]: 61.6%; Activity [31]: 29.5%; Activity [32]: 14.8%
2 | CCN(CC)CCCCOc1cc2oc3cc(OCCCCN(CC)CC)c(OC)c(CC=C(C)C)c3c(=O)c2c(O)c1CC=C(C)C | 93.2 | 94.1 | 34.7 | 5.5 | 7.2 | 52.8 | 92.8 | 0 | 98 | 10.5 | 3.6 | 2 | 6.4 (≈ 4.26 µg/mL) | 47.2 | 6.7 | 29.3 | 77.1 | 93.3 | 91.9 | 10.4 | Activity [21]: 16.4%; Activity [22]: 33.9%; Activity [23]: 89.6%; Activity [24]: 27.4%; Activity [25]: 57.6%; Activity [26]: 75.1%; Activity [27]: 66%; Activity [28]: 24.9%; Activity [29]: 20.8%; Activity [30]: 68.7%; Activity [31]: 5.9%; Activity [32]: 6.8%
3 | COc1c(OCCCCN2CCOCC2)cc2oc3cc(OCCCCN4CCOCC4)c(CC=C(C)C)c(O)c3c(=O)c2c1CC=C(C)C | 68.5 | 50.2 | 4.8 | 41.6 | 66.9 | 92.7 | 33.1 | 0 | 95.3 | 14.3 | 8.1 | 4.7 | 30 (≈ 20.8 µg/mL) | 7.3 | 37.2 | 85.6 | 91.4 | 62.8 | 27.4 | 66.6 | Activity [21]: 80%; Activity [22]: 92.3%; Activity [23]: 33.4%; Activity [24]: 8.6%; Activity [25]: 83.3%; Activity [26]: 88.5%; Activity [27]: 25.4%; Activity [28]: 11.5%; Activity [29]: 20.2%; Activity [30]: 30%; Activity [31]: 49.8%; Activity [32]: 31.5%

Reference: ChEMBL document CHEMBL3872220, “Amphiphilic xanthones as a potent chemical entity of anti-mycobacterial agents with membrane-targeting properties” (Eur J Med Chem, 2016)
